Reference: patent US20220387618A1, “METHODS OF TREATING HER2 POSITIVE BREAST CANCER WITH TUCATINIB IN COMBINATION WITH AN ANTI-HER2 ANTIBODY-DRUG CONJUGATE” (Seagen Inc., priority 2019, published 2022)

Assays:
HER2 [1] = target: T1, HER2 (Homo sapiens, UniProt P04626); experiment: HER2 internalization assays with fluorescently-labeled trastuzumab (AF488, QF) in SK-BR-3 cells; format: cell-based; settings: tucatinib 100 nM
T1 construct: endogenous in cells; host or cells: SK-BR-3
Procedure: To probe the dynamics of HER2 at the cell surface upon binding to antibody therapeutics, HER2 internalization assays were conducted over the course of 72 hours. […] FIGS. 10A and 10B show the dynamics of HER2 at the cell surface upon binding to antibody therapeutics.
To probe the dynamics of HER2 at the cell surface upon binding to antibody therapeutics in the presence or absence of tucatinib (100 nM), SK-BR-3 cells were incubated with fluorescently-labeled trastuzumab to mark HER2 at the cell surface as shown in FIGS. 10A and 10B. Excess antibody was washed out. Cells were imaged at time points spanning 72 hours to observe internalization of surface-bound antibody. Concurrent experiments were conducted with trastuzumab labeled with QF […], a quenched fluor which fluoresces upon lysosomal processing and can serve as a proxy for antibody catabolism.

HER2 [2] = target: T1, HER2; experiment: Plasma membrane-associated HER2 levels by quantitative FACS (qFACS) after tucatinib treatment; format: cell-based; settings: BT-474, SK-BR-3, HCC-1419, UACC-893; tucatinib 30 nM or 100 nM; 24 hours and 48 hours
Procedure: (§1) To assess changes to HER2 protein levels upon treatment with tucatinib, HER2-amplified breast cancer cell lines were analyzed by Western blot and quantitative FACS (qFACS). HER2 protein levels were determined for BT-474, SK-BR-3, HCC-1419, and UACC-893 after treatment with tucatinib at either 30 nM or 100 nM doses, for the duration of 24 hours and 48 hours.
Cell surface levels of HER2 were determined for BT-474, SK-BR-3, HCC-1419, and UACC-893 after treatment with tucatinib at either 30 nM or 100 nM doses, for the duration of 24 hours and 48 hours. Plasma membrane-associated levels of HER2 were determined by quantitative FACS (qFACS) analysis after exclusion of dead cells. In all four cell lines tested, HER2 levels at the cell surface increased after treatment with tucatinib.

P-gp = P-gp (Homo sapiens, UniProt P08183); settings: concomitant use with digoxin; cited from earlier work
Sequence of P-gp (P08183 whole entry): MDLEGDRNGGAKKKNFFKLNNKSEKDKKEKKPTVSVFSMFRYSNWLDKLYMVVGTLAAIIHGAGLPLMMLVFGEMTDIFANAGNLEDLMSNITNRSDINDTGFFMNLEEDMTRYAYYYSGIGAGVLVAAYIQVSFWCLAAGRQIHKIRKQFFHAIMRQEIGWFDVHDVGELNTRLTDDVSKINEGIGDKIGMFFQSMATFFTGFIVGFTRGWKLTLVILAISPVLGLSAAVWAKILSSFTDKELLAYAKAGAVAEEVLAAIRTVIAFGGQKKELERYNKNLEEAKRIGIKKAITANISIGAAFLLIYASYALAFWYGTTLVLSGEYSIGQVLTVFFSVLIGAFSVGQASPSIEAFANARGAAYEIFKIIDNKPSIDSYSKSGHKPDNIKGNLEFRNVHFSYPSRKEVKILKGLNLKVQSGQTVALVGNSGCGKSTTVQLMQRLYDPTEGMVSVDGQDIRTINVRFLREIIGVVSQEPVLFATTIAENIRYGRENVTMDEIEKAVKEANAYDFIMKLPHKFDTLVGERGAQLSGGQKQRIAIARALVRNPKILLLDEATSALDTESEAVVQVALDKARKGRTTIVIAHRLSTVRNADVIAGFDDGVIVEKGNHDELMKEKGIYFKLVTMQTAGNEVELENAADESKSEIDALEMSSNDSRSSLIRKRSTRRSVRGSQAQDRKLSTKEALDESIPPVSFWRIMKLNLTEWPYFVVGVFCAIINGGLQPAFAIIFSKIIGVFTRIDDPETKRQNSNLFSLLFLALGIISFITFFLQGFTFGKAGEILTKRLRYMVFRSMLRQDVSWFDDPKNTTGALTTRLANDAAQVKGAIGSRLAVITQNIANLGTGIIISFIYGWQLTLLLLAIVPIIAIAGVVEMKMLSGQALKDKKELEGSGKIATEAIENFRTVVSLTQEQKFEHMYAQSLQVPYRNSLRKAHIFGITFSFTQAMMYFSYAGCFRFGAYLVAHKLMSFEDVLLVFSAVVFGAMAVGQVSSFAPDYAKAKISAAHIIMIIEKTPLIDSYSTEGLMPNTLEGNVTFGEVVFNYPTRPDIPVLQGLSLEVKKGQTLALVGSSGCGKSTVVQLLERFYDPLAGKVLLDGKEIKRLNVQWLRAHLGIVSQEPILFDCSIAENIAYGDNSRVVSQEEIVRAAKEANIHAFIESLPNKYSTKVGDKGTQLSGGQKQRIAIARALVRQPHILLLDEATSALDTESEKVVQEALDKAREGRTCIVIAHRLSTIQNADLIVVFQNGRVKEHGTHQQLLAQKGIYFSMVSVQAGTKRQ

CTG-0708 model = experiment: T-DM1-resistant HER2+ patient-derived (PDX) breast cancer model CTG-0708; format: in vivo, mice
Procedure: (§2) For these experiments, two T-DM1-resistant breast cancer tumor models were selected which scored 3+ by IHC and had metastasized to the lung. Tumor fragments were implanted subcutaneously into the flanks of immunocompromised mice. […] Each study arm was comprised of eight animals each. Tumor volume was monitored until the designated endpoint of the study. P-values were determined by t-test analysis comparing the tucatinib/T-DM1 combination to the closest single agent arm (ref brackets).

[3] = test system: BT-474 breast cancer cells; experiment: BT-474 cell line-derived (CDX) subcutaneous xenograft model; format: in vivo, mice; settings: BT-474 CDX; tucatinib 50 mg/kg orally twice daily; T-DM1 10 mg/kg IV single dose; nine animals per arm
Procedure: Cell line-derived (CDX) BT-474 breast cancer cells were implanted subcutaneously into the flanks of female immunocompromised mice. […] Each study arm was comprised of nine animals each. Tumor volume was monitored until the designated endpoint of the study. P-values were determined by t-test analysis comparing the tucatinib/T-DM1 combination to the closest single agent arm (ref brackets). In this model, the combination of tucatinib and T-DM1 produced three complete responses and six partial responses, while tucatinib alone generated eight partial responses, and T-DM1 alone generated nine partial responses.

HER2 [4] = target: T1, HER2; experiment: HER2 total protein levels by western blotting (WES system) after tucatinib treatment; format: cell-based; settings: BT-474, SK-BR-3, HCC-1419, UACC-893; tucatinib 30 nM or 100 nM; 24 hours and 48 hours
Procedure: as §1
HER2 protein levels were determined for BT-474, SK-BR-3, HCC-1419, and UACC-893 after treatment with tucatinib at either 30 nM or 100 nM doses, for the duration of 24 hours and 48 hours. Protein lysates were generated from cells harvested at each timepoint. HER2 total protein levels were determined by western blotting using a WES™ system, and normalized against GAPDH levels as a loading control. In all four cell lines tested, HER2 total protein levels increased after treatment with tucatinib.

HER2+ mBC = experiment: Phase 1b open-label dose-escalation study ONT-380-004 of tucatinib combined with T-DM1; format: in vivo, human; settings: PO BID in combination with T-DM1 3.6 mg/kg every 21 days
Procedure: For subjects in the CNS disease-expansion cohorts, trastuzumab and taxane (together or separately) might have been given at any time prior to study enrollment as part of neoadjuvant therapy, adjuvant therapy, or therapy for metastatic disease.
Fifty-seven T-DM1-naive subjects were treated (Borges 2018). […] In these 50 subjects, the median PFS was 8.2 months (95% CI: 4.8, 10.3); the clinical benefit rate (CBR; subjects with best response of complete response (CR) or partial response [PR], or stable disease [SD] for >6 months) among 48 evaluable subjects was 58% (28 subjects). Thirty-four of 50 subjects (68%) treated with the MTD had measurable disease and were evaluable for response with an objective response rate (ORR) of 47% (1 subject with CR, 15 subjects with PR 14 subjects with SD, and 4 subjects with disease progression). Among the subjects whose disease responded to treatment, the median duration of response (DOR) was 6.9 months (95% CI: 2.8, 19.8).

CTG-0807 model = experiment: T-DM1-resistant HER2+ patient-derived (PDX) breast cancer model CTG-0807; format: in vivo, mice
Procedure: as §2

[5] = CTG-0708 PDX, tucatinib 50 mg/kg orally twice daily, T-DM1 10 mg/kg IV single dose, eight animals per arm
[6] = CTG-0807 PDX, tucatinib 50 mg/kg orally twice daily, T-DM1 10 mg/kg IV single dose, eight animals per arm

T1 sequence (P04626 23-1255): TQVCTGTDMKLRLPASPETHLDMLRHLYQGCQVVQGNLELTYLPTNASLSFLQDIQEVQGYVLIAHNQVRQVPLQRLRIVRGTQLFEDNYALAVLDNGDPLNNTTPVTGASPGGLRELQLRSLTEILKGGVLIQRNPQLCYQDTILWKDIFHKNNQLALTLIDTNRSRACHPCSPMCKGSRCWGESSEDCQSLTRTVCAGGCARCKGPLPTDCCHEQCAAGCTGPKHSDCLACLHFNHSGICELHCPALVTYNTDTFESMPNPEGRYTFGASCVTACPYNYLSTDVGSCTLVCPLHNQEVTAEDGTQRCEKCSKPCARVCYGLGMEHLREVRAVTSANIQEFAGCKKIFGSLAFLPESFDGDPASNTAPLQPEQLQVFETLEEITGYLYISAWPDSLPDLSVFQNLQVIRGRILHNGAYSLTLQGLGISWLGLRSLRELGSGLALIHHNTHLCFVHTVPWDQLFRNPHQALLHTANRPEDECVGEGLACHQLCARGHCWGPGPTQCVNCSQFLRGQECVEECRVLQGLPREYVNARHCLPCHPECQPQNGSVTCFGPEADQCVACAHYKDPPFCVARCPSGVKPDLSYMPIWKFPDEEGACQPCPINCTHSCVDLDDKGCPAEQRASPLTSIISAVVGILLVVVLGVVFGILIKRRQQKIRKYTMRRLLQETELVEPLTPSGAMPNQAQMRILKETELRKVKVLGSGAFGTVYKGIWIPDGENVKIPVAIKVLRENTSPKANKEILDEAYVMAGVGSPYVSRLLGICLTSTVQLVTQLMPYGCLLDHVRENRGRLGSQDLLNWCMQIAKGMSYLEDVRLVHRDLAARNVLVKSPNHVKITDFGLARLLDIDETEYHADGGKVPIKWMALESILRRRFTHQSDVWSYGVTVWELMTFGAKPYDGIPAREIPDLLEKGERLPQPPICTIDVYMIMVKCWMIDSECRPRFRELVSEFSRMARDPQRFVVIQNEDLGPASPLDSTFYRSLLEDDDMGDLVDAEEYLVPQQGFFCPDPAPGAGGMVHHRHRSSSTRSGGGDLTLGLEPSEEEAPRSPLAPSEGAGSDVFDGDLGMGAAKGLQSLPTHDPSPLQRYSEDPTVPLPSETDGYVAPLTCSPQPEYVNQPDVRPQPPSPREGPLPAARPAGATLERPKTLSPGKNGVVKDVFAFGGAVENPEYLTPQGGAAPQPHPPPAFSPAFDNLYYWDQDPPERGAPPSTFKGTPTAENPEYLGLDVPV

Cc1cc(Nc2ncnc3ccc(NC4=NC(C)(C)CO4)cc23)ccc1Oc1ccn2ncnc2c1 [tucatinib]
dwell time of HER2 at the cell surface (HER2 [1]; initial effect): increased the dwell time of HER2 at the cell surface | internalization and lysosomal processing of HER2 bound to trastuzumab (HER2 [1]; later timepoints, up to 72 hours): HER2 bound to trastuzumab was internalized and directed towards lysosomes | HER2 levels at the cell surface (HER2 [2]): increased | effect on digoxin concentrations (drug interaction) (P-gp): increases digoxin concentrations | partial responses (CTG-0708 model; [5]): two | tumor growth / tumor control (CTG-0708 model; T-DM1 resistant PDX model CTG-0708): inhibited tumor growth | partial responses [3]: eight | HER2 total protein levels (normalized against GAPDH) (HER2 [4]): increased | maximum-tolerated dose (MTD) of tucatinib (HER2+ mBC): 300 mg | partial responses (CTG-0807 model; [6]): 6 | tumor growth / tumor control (CTG-0807 model; T-DM1 resistant PDX model CTG-0807): inhibited tumor growth

ado-trastuzumab emtansine [T-DM1, reference compound]
complete responses (CTG-0708 model; [5]): no partial or complete responses | partial responses (CTG-0708 model; [5]): no partial or complete responses | partial responses [3]: nine | complete responses (CTG-0807 model; [6]): no partial or complete responses | partial responses (CTG-0807 model; [6]): no partial or complete responses
